Experimental findings from PMC1997131, “Enzymes involved in DNA ligation and end-healing in the radioresistant bacterium Deinococcus radiodurans” (BMC Molecular Biology, 2007) are described below.

In the experiment the target is T1, LigA (Deinococcus radiodurans, UniProt Q9RSQ5).
T1 construct: full-length, N-terminal hexahistidine tag (pRSETb, kept), E. coli BL21(DE3)
Put plainly: adenylyltransferase assay, SDS-PAGE autoradiography. The class given is biochemical. The following applies: 0.1 μM [32P]-NAD+, 1 mM MnCl2, pH 6.8, 30 °C; covalent AMP adduct; labelled compound.

SMILES strings stand for the structures.

As to `NC(=O)c1ccc[n+]([C@@H]2O[C@H](COP(=O)(O)OP(=O)(O)OC[C@H]3O[C@@H](n4cnc5c(N)ncnc54)[C@H](O)[C@@H]3O)[C@@H](O)[C@H]2O)c1` [NAD^+], the “adenylyltransferase assay, SDS-PAGE autoradiography” value was “in an adenylyltransferase activity assay LigA wt formed an AMP-ligase complex”.
